# Patent publication US20120053144A1, “Cobalamin Taxane Bioconjugates For Treating Eye Disease” (Osiris Therapeutics, Inc., priority 2009, published 2012)
# Tested on: choroidal neovascularization
# Test: Choroidal neovascularization model (argon laser scarring, fluorescein leakage scoring)
# Assay type: in vivo, rats
# Settings: rat eye, laser-induced, treated on day 0
# Description: Groups of rats were neovascularized by argon laser scarring on an eye. At the same time (day 0), the eye was immediately treated with the cobalamin-paclitaxel bioconjugate (CT-101) prepared in accordance with Example 1. Two concentrations, one higher and one lower, were tested. The treatment regimen also included a vehicle and KENACORT® RETARD (4% triamcinolone acetonide), as a positive control. The treated eyes were evaluated for inhibition of neovascularization on days 7, 14 and 21 by infusing the eye with fluorescein and scoring the leakage from each spot. The leakage of fluorescein on the photographies of the angiograms from each spot were evaluated by two examiners using an HRA (Heidelberg's Retinal Angiograph) in a masked fashion and graded as follows:
# Score 1: slightly stained;
# Score 2: moderate stained;
# Score 3: strongly stained.
substance,measurement,setting,value
B12-5′-OCONH(CH2)5CO-Phe-Lys-PABC-7-Taxol [CT-101],inhibition of neovascularization (fluorescein leakage score),"Day 14, both concentrations (higher and lower)",measurable effect
same,inhibition of neovascularization (fluorescein leakage score),effect over 7 days relative to vehicle and positive control,"marked angiogenic effect relative to the vehicle over 7 days, and was comparable in effect to the positive control"
